Assay results: PubChem BioAssay AID248 (DTP/NCI, 2004)
Where “and” joins values, the source holds several entries; their conditions need not be identical. Identical values can stand only once. Inconclusive results and toxic doses are left out.

Tested on: L1210 leukemia ip in BDF1 mice, survival T/C
Test: NCI In Vivo Anticancer Drug Screen. Data for tumor model L1210 Leukemia (intraperitoneal) in B6D2F1 (BDF1) mice
Details: endpoint: mean survival time, higher = longer survival
In short: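 Tumor was transplanted into mice, which were then dosed with test compound or vehicle alone. Survival was recorded for each group, and the treated figure was expressed relative to the control figure.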

[1] = dose: 100.0 mg/kg/injection, schedule: Q01DX009 (ip), vehicle: Klucel (hydroxypropylcellulose) (HPC)
[2] = dose: 100.0 mg/kg/injection, schedule: Q04DX003 (ip), vehicle: saline with Tween-80
[3] = dose: 25.0 mg/kg/injection, schedule: Q01DX001 (ip), vehicle: Klucel (hydroxypropylcellulose) (HPC)
[4] = dose: 50.0 mg/kg/injection, schedule: Q01DX001 (ip), vehicle: Klucel (hydroxypropylcellulose) (HPC)
[5] = dose: 100.0 mg/kg/injection, schedule: Q01DX001 (ip), vehicle: saline
[6] = dose: 200.0 mg/kg/injection, schedule: Q01DX001 (ip), vehicle: saline
[7] = dose: 400.0 mg/kg/injection, schedule: Q01DX001 (ip), vehicle: saline
[8] = dose: 100.0 mg/kg/injection, schedule: Q01DX009 (ip), vehicle: saline with Tween-80
[9] = dose: 200.0 mg/kg/injection, schedule: Q04DX003 (ip), vehicle: saline with Tween-80
[10] = dose: 100.0 mg/kg/injection, schedule: Q04DX002 (ip), vehicle: Klucel (hydroxypropylcellulose) (HPC)
[11] = dose: 200.0 mg/kg/injection, schedule: Q04DX002 (ip), vehicle: Klucel (hydroxypropylcellulose) (HPC)
[12] = dose: 100.0 mg/kg/injection, schedule: Q04DX003 (ip), vehicle: Klucel (hydroxypropylcellulose) (HPC)
[13] = dose: 200.0 mg/kg/injection, schedule: Q01DX009 (ip), vehicle: Klucel (hydroxypropylcellulose) (HPC)
[14] = dose: 400.0 mg/kg/injection, schedule: Q01DX009 (ip), vehicle: Klucel (hydroxypropylcellulose) (HPC)
[15] = dose: 400.0 mg/kg/injection, schedule: Q04DX003 (ip), vehicle: Klucel (hydroxypropylcellulose) (HPC)
[16] = dose: 50.0 mg/kg/injection, schedule: Q01DX009 (ip), vehicle: saline with Tween-80
[17] = dose: 10.0 mg/kg/injection, schedule: Q01DX001 (ip), vehicle: saline
[18] = dose: 100.0 mg/kg/injection, schedule: Q01DX001 (ip), vehicle: other
[19] = dose: 200.0 mg/kg/injection, schedule: Q01DX001 (ip), vehicle: other

## Br[CH2][Sn]([Br])([Br])[CH2]Br
dose: 6.25 mg/kg/injection, schedule: Q04DX002 (ip), vehicle: saline with Tween-80
  T/C: 101 % of control
dose: 12.5 mg/kg/injection, schedule: Q04DX002 (ip), vehicle: saline with Tween-80
  T/C: 101 % of control
dose: 25.0 mg/kg/injection, schedule: Q04DX002 (ip), vehicle: saline with Tween-80
  T/C: 116 % of control

## COc1ccc(OC)c(N)c1
dose: 25.0 mg/kg/injection, schedule: Q01DX009 (ip), vehicle: Klucel (hydroxypropylcellulose) (HPC)
  T/C: 88 % of control
dose: 50.0 mg/kg/injection, schedule: Q01DX009 (ip), vehicle: Klucel (hydroxypropylcellulose) (HPC)
  T/C: 93 % of control
[1]
  T/C: 93 % of control

## COc1cccc(/C(C)=N\NC(=O)c2ccccc2)c1
dose: 25.0 mg/kg/injection, schedule: Q04DX003 (ip), vehicle: saline with Tween-80
  T/C: 88 % of control
dose: 50.0 mg/kg/injection, schedule: Q04DX003 (ip), vehicle: saline with Tween-80
  T/C: 90 % of control
[2]
  T/C: 92 % of control

## C[Si](C)(O[Si](C)(C)C1C=CC=C1)C1C=CC=C1
dose: 12.5 mg/kg/injection, schedule: Q01DX001 (ip), vehicle: Klucel (hydroxypropylcellulose) (HPC)
  T/C: 91 % of control
[3]
  T/C: 91 % of control
[4]
  T/C: 88 % of control

## O=C(N/N=C/c1ccc2c(c1)OCO2)c1cccc2ccccc12
[5]
  T/C: 97 % of control
[6]
  T/C: 86 % of control
[7]
  T/C: 97 % of control

## Cc1ccc(C)c(CCO)c1
[8]
  T/C: 100 % of control
[2]
  T/C: 97 % of control
dose: 200.0 mg/kg/injection, schedule: Q01DX009 (ip), vehicle: saline with Tween-80
  T/C: 95 % of control
[9]
  T/C: 108 % of control
dose: 400.0 mg/kg/injection, schedule: Q01DX009 (ip), vehicle: saline with Tween-80
  T/C: 91 % of control

## CC1(C)CCCC2(C)C1CC(O)C1(CO1)C2CCC(C)(O)C1CO1 (stereo not given)
dose: 25.0 mg/kg/injection, schedule: Q01DX009 (ip), vehicle: DMSO
  T/C: 92 % of control
dose: 25.0 mg/kg/injection, schedule: Q04DX003 (ip), vehicle: DMSO
  T/C: 88 % of control
dose: 50.0 mg/kg/injection, schedule: Q01DX009 (ip), vehicle: DMSO
  T/C: 96 % of control
dose: 50.0 mg/kg/injection, schedule: Q04DX003 (ip), vehicle: DMSO
  T/C: 93 % of control
dose: 100.0 mg/kg/injection, schedule: Q04DX003 (ip), vehicle: DMSO
  T/C: 97 % of control and 92 % of control

## O=c1c2ccccc2ncn1C1OC(CO)C(O)C1O (stereo not given)
[5]
  T/C: 96 % of control
[6]
  T/C: 102 % of control
[7]
  T/C: 104 % of control

## O=C(/C=C/c1ccccc1)N1CCOCC1
dose: 50.0 mg/kg/injection, schedule: Q01DX009 (ip), vehicle: saline
  T/C: 95 % of control
[5]
  T/C: 97 % of control
dose: 100.0 mg/kg/injection, schedule: Q01DX009 (ip), vehicle: saline
  T/C: 97 % of control
[6]
  T/C: 95 % of control

## CCCCCCCN(CCCCCCC)CCC(=O)c1ccc2cc(Br)c3ccccc3c2c1
dose: 55.0 mg/kg/injection, schedule: Q01DX Z (ip), vehicle: methylcellulose (MC)
  T/C: 97 % of control
dose: 83.0 mg/kg/injection, schedule: Q01DX Z (ip), vehicle: methylcellulose (MC)
  T/C: 86 % of control
dose: 125.0 mg/kg/injection, schedule: Q01DX Z (ip), vehicle: methylcellulose (MC)
  T/C: 97 % of control

## O=C(NSN1CCOCC1)c1ccccc1
[10]
  T/C: 102 % of control
[11]
  T/C: 98 % of control

## Cc1cc(C)c(NC(=S)NC(=O)c2cccc3ccccc23)c(C)c1
[1]
  T/C: 98 % of control
[12]
  T/C: 103 % of control
[13]
  T/C: 106 % of control
dose: 200.0 mg/kg/injection, schedule: Q04DX003 (ip), vehicle: Klucel (hydroxypropylcellulose) (HPC)
  T/C: 97 % of control
[14]
  T/C: 95 % of control
[15]
  T/C: 103 % of control

## Cc1ccc(Cl)cc1NC(=O)c1ccc([N+](=O)[O-])cc1
[16]
  T/C: 91 % of control
[8]
  T/C: 86 % of control

## CCCCCCCCCCOC(=O)CCN1CC1
[2]
  T/C: 109 % of control
[9]
  T/C: 96 % of control

## O=C(Nc1ccc(F)c([N+](=O)[O-])c1)Oc1cccnc1
dose: 25.0 mg/kg/injection, schedule: Q01DX009 (ip), vehicle: saline with Tween-80
  T/C: 97 % of control and 99 % of control
[16]
  T/C: 95 % of control and 96 % of control
dose: 100.0 mg/kg/injection, schedule: Q01DX001 (ip), vehicle: saline with Tween-80
  T/C: 108 % of control
dose: 100.0 mg/kg/injection, schedule: Q04DX002 (ip), vehicle: saline with Tween-80
  T/C: 95 % of control and 100 % of control
[2]
  T/C: 97 % of control
dose: 200.0 mg/kg/injection, schedule: Q01DX001 (ip), vehicle: saline with Tween-80
  T/C: 109 % of control
dose: 200.0 mg/kg/injection, schedule: Q04DX002 (ip), vehicle: saline with Tween-80
  T/C: 104 % of control and 109 % of control
[9]
  T/C: 100 % of control
dose: 400.0 mg/kg/injection, schedule: Q04DX002 (ip), vehicle: saline with Tween-80
  T/C: 102 % of control and 103 % of control

## O=C1OCC/C1=C/CCCC/C=C1\CCOC1=O
[1]
  T/C: 93 % of control
[12]
  T/C: 94 % of control
[13]
  T/C: 98 % of control
dose: 266.0 mg/kg/injection, schedule: Q04DX003 (ip), vehicle: Klucel (hydroxypropylcellulose) (HPC)
  T/C: 93 % of control
[15]
  T/C: 94 % of control

## O=C(O)CC(c1ccccc1)n1ccc(=O)[nH]c1=O (stereo not given)
[3]
  T/C: 103 % of control
[4]
  T/C: 106 % of control
dose: 100.0 mg/kg/injection, schedule: Q01DX001 (ip), vehicle: Klucel (hydroxypropylcellulose) (HPC)
  T/C: 101 % of control

## CSc1ccccc1N.[Cl][Cu][Cl]
dose: 5.0 mg/kg/injection, schedule: Q01DX001 (ip), vehicle: saline
  T/C: 103 % of control
[17]
  T/C: 115 % of control

## O=C(OCC#CC#CCOC(=O)c1cccc2ccccc12)c1cccc2ccccc12
[1]
  T/C: 93 % of control
[13]
  T/C: 89 % of control
[14]
  T/C: 93 % of control

## CCN(CC)C(=O)O/N=C(/C)c1ccccc1
[18]
  T/C: 96 % of control
[19]
  T/C: 91 % of control

## CN(N=O)C(=O)NC1CCOCC1
[17]
  T/C: 102 % of control
dose: 20.0 mg/kg/injection, schedule: Q01DX001 (ip), vehicle: saline
  T/C: 103 % of control
dose: 40.0 mg/kg/injection, schedule: Q01DX001 (ip), vehicle: saline
  T/C: 104 % of control
dose: 60.0 mg/kg/injection, schedule: Q01DX001 (ip), vehicle: saline
  T/C: 109 % of control
dose: 90.0 mg/kg/injection, schedule: Q01DX001 (ip), vehicle: saline
  T/C: 102 % of control
dose: 187.0 mg/kg/injection, schedule: Q01DX001 (ip), vehicle: saline
  T/C: 119 % of control
dose: 250.0 mg/kg/injection, schedule: Q01DX001 (ip), vehicle: saline
  T/C: 112 % of control
dose: 500.0 mg/kg/injection, schedule: Q01DX001 (ip), vehicle: saline
  T/C: 159 % of control
dose: 750.0 mg/kg/injection, schedule: Q01DX001 (ip), vehicle: saline
  T/C: 187 % of control

## CC1CCN(C(=O)C(c2ccccc2)c2ccccc2)CC1
[10]
  T/C: 101 % of control
[11]
  T/C: 86 % of control
dose: 400.0 mg/kg/injection, schedule: Q04DX002 (ip), vehicle: Klucel (hydroxypropylcellulose) (HPC)
  T/C: 101 % of control

## CN1C(=O)OC2C3NC(=O)OC3C(O)C(O)C21 (stereo not given)
dose: 50.0 mg/kg/injection, schedule: Q01DX001 (ip), vehicle: carboxymethylcellulose (CMC)
  T/C: 109 % of control
dose: 100.0 mg/kg/injection, schedule: Q01DX001 (ip), vehicle: carboxymethylcellulose (CMC)
  T/C: 109 % of control
dose: 200.0 mg/kg/injection, schedule: Q01DX001 (ip), vehicle: carboxymethylcellulose (CMC)
  T/C: 107 % of control
dose: 400.0 mg/kg/injection, schedule: Q01DX001 (ip), vehicle: carboxymethylcellulose (CMC)
  T/C: 102 % of control

## N#CC(OS(=O)(=O)c1ccccc1)c1ccccc1 (stereo not given)
dose: 50.0 mg/kg/injection, schedule: Q01DX001 (ip), vehicle: other
  T/C: 89 % of control
[18]
  T/C: 97 % of control
[19]
  T/C: 105 % of control
